From patent publication US7662789B2, “Peptide substance restoring myocardium function” (“Access Bioscience” CJSC, priority 2004, dated 2010)
Where two headings read alike, the source gives them in different places. Marks after values point to notes of the source that are not given here. Where a SMILES comes first, the peptide text is derived from it.

Key:
[1] = system: isolated guinea pig heart; experiment: Isolated guinea pig heart, Langendorf perfusion, 30 min total ischemia and re-perfusion; design: species or system guinea pigs
Method: The experiment was conducted under conditions of perfusion in isolated hearts of 60 male guinea pigs, by Langendorf. The animals were randomly subdivided into several groups, each consisting of 6 animals. Total cardiac ischemia was induced by means of fully tightening the perfusional solution hose for 30 minutes. Then re-perfusion was performed under the same conditions as before ischemia (control group). In experimental animals perfusion was performed together with Ala-Glu-Asp-Arg (SEQ ID NO:1) tetrapeptide in the concentrations of 0.002-0.05 μg/ml. Mechanical contractions were registered, bioptates, weighing approximately 10 mg, were several times taken from the top of the heart, then the content of malon dialdegide (MDA) was identified in them. The hearts in the end of the experiment and partially before ischemia were frozen in liquid nitrogen for ATP, ADP and AMP content identification.

[2] = system: organotypic cardiac culture explants; conditions: 3 days incubation
Method: Cardiac tissue explants (from the left and right ventricles) of pubertal Wistar rats were cultivated in petri dishes with collagen bottom cover. The nutritious medium was composed of 35% Eagle's medium, 35% Hanx solution, 25% calf fetal serum and 5% of chicken embryonic extract with added glucose, insulin, gentamycin and glutamin. Ala-Glu-Asp-Arg (SEQ ID NO:1) tetrapeptide was added into the cultural medium in fixed concentrations, from 0.01 to 20.0 ng per ml of nutritious medium. After 3 days of incubation at the temperature of 37° C. the increase in the area of explants was identified using phase contrast microscope. Biological activity of the preparation was expressed in the change of square index (SI) of the explants cultivated in the medium containing the peptide, as compared to the control.

[3] = system: experimental myocardium infarction in rats; experiment: Experimental myocardium infarction by left coronary artery vasoligation in rats; assay type: in vivo; conditions: for Necrosis zone size, % of ventricle mass: 0.05 μg per animal i.p. 1, 3, 5 h after occlusion; for Death rate: 20 animals per group
Method: The experiment was conducted on 40 white mongrel rats each weighing 180-200 g. The animals were randomly subdivided into two groups, 20 animals in each. Myocardium infarction (MI) was induced by vasoligation of the left coronary artery. Ala-Glu-Asp-Arg tetrapeptide was administered to the animals intraperitoneally in the dose of 0.05 μg per animal in sterile 0.9% NaCl solution three times—in 1, 3 and 5 hours after coronary occlusion. Rats were decapitated in 6 and 24 hours after the surgery. Animals subjected to the surgery, which intraperitoneally received 0.9% NaCl solution, served as the control. MI zone size was identified gravimetrically. Myocardium fragments were fixed for light and electronic microscopy, part of the material was frozen in liquid nitrogen for biochemical studies.

white mongrel male rats = experiment: Sub-acute toxicity, 90 days intramuscular in rats; assay type: in vivo; conditions: 90 days i.m. daily; 1 μg/kg, 0.1 mg/kg, 1 mg/kg; 100-1000 times the therapeutic doses
Method: The study of sub-acute toxicity was conducted on 60 white mongrel male rats with body weight of 160-240 g. […] Before the substance's administration, as well as on the 30th, 60th and 90th day after the beginning of the course the morphological composition and the properties of the animals' peripheric blood were studied. Upon completion of the experiment the biochemical and coagulological indices of the animals' blood were studied.

isolated cardiomyocytes = experiment: Cardiomyocyte bioenergetics, polarographic oxygen consumption; assay type: cell-based, rats
Method: Cardiomyocytes were extracted from the cardiac muscle of pubertal rats by Vahouny. Oxygen consumption by isolated cardiomyocytes was registered polarographically at the temperature of 30° C. Part of cardiomyocytes suspension was oxygenated by saturation with carbogen for 1-3 hours at room temperature. The other part of suspension was not oxygenated (conditions of moderate hypoxia). […] The tetrapeptide was introduced into the medium in the concentration of 10 ng/ml.

[4] = 0.002 μg/ml, re-perfusion 15 min
[5] = 0.002 μg/ml, re-perfusion 30 min
[6] = 0.005 μg/ml, re-perfusion 15 min
[7] = 0.005 μg/ml, re-perfusion 30 min
[8] = 0.01 μg/ml, re-perfusion 15 min
[9] = 0.01 μg/ml, re-perfusion 30 min
[10] = 0.05 μg/ml, re-perfusion 15 min
[11] = 0.05 μg/ml, re-perfusion 30 min
[12] = 0.05 μg per animal i.p., 6 hours
[13] = 0.05 μg per animal i.p., 24 hours

## C[C@H](N)C(=O)N[C@@H](CCC(=O)O)C(=O)N[C@@H](CC(=O)O)C(=O)N[C@@H](CCCNC(=N)N)C(=O)O [Tetrapeptide, L-alanyl-L-glutamyl-L-aspartyl-L-arginine] (H-AEDR-OH)
[1]; 0.002 μg/ml, before ischemia
  Amplitude of contractions, % of initial: 100 % of initial
  MDA: 225 ± 23 nmole/g of tissue
[1]; [4]
  Amplitude of contractions, % of initial: 70 ± 13 % of initial
  MDA: 216 ± 5 nmole/g of tissue
[1]; [5]
  Amplitude of contractions, % of initial: 81 ± 16 % of initial
  MDA: 220 ± 12 nmole/g of tissue
[1]; 0.005 μg/ml, before ischemia
  Amplitude of contractions, % of initial: 100 % of initial
  MDA: 168 ± 25 nmole/g of tissue
[1]; [6]
  Amplitude of contractions, % of initial: 89 ± 6 % of initial
  MDA: 231 ± 7 nmole/g of tissue
[1]; [7]
  Amplitude of contractions, % of initial: 93 ± 5 % of initial
  MDA: 186 ± 10 nmole/g of tissue
[1]; 0.01 μg/ml, before ischemia
  Amplitude of contractions, % of initial: 100 % of initial
  MDA: 203 ± 18 nmole/g of tissue
[1]; [8]
  Amplitude of contractions, % of initial: 61 ± 4 % of initial
  MDA: 248 ± 8 nmole/g of tissue
[1]; [9]
  Amplitude of contractions, % of initial: 64 ± 3 % of initial
  MDA: 220 ± 9 nmole/g of tissue
[1]; 0.05 μg/ml, before ischemia
  Amplitude of contractions, % of initial: 100 % of initial
  Energy charge: 7.78 ± 0.14 μmole of adenosine phosphates/g of tissue
  MDA: 156 ± 28 nmole/g of tissue
[1]; [10]
  Amplitude of contractions, % of initial: 38 ± 13 % of initial
  MDA: 264 ± 13 nmole/g of tissue
[1]; [11]
  Amplitude of contractions, % of initial: 32 ± 9 % of initial
  Energy charge: 2.98 ± 0.35 μmole of adenosine phosphates/g of tissue
  MDA: 252 ± 11 nmole/g of tissue
[1]; 0.002-0.005 μg/ml, before ischemia
  Energy charge: 7.68 ± 0.21 μmole of adenosine phosphates/g of tissue
[1]; 0.002-0.005 μg/ml, re-perfusion 30 min
  Energy charge: 6.01 ± 0.23 μmole of adenosine phosphates/g of tissue
[1]; perfusion without ischemia
  Influence on the status of the normal heart: does not influence the status of the normal heart
[2]; 0.01 ng/ml
  SI, % with respect to the control: 10%
[2]; 0.05 ng/ml
  SI, % with respect to the control: 20* %
[2]; 0.1 ng/ml
  SI, % with respect to the control: 22* %
[2]; 0.5 ng/ml
  SI, % with respect to the control: 20* %
[2]; 1.0 ng/ml
  SI, % with respect to the control: 15* %
[2]; 2.0 ng/ml
  SI, % with respect to the control: 20* %
[2]; 10.0 ng/ml
  SI, % with respect to the control: 27* %
[2]; 20.0 ng/ml
  SI, % with respect to the control: 8%
[3]; 6 hours
  Necrosis zone size, % of ventricle mass: 38.1 ± 1.8 % of ventricle mass
[3]; 24 hours
  Necrosis zone size, % of ventricle mass: 49.6 ± 1.6 % of ventricle mass
[3]; [12]
  Content in the blood serum: CPK: 961 ± 52 nmole/s · 1
  Content in the blood serum: LDH: 309 ± 16 nmole/s · 1
  Content in the blood serum: glucose: 3.12 ± 0.09 mmol/L
  Glycogen content in the myocardium: 1.05 ± 0.12 g/kg of the tissue
  Death rate: 2
[3]; [13]
  Content in the blood serum: CPK: 923 ± 38 nmole/s · 1
  Content in the blood serum: LDH: 201 ± 15 nmole/s · 1
  Content in the blood serum: glucose: 3.01 ± 0.11 mmol/L
  Glycogen content in the myocardium: 1.18 ± 0.12 g/kg of the tissue
  Death rate: 1
[3]; 0.05 μg per animal i.p., control 45%
  Mortality rate during the first 24 hours after infarction: 15%
[3]; acute myocardium ischemia, versus control
  Decrease of glucose content in the blood: ~1.5 times
[3]; electronograms, 24 hours since beginning of MI, control 41.5±2.4
  Coefficient of mitochondria energy efficiency: 93.2±2.3%
White mongrel male rats
  Sub-acute toxicity, side effects: absence of side effects
Isolated cardiomyocytes; 10 ng/ml, hypoxia, succinate 1×10^−4 M, without tetrapeptide 7.35±0.26
  Coefficient of breath stimulation (breath rate with succinate to initial breath rate): 1.97±0.26
Isolated cardiomyocytes; tetrapeptide in the medium
  NAD.H2 oxidation by cardiomyocytes: increases NAD.H2 oxidation by cardiomyocytes
